Where two headings read alike, the source gives them in different places.
What was measured:
MV-4-11 [1] = assay: Proliferation assay B (spheroid assay) MV-4-11; type: cell-based, human; settings: Homo sapiens, MV4-11, 192 h, MV-4-11 cells, confluence at day 8, absolute IC50; read-out: (3b) Spheroid assay MV-4--11 (IC50(μM)) Assay B
Description: 3b) Proliferation Assay B
(§1) The anti-proliferative effect of menin/MLL protein/protein interaction inhibitor test compounds was assessed in human leukemia cell lines. The cell lines MV-4-11 and MOLM14 harbor MILL translocations and express the MILL fusion proteins MLL-AF4 and MLL-AF9, respectively, as well as the wildtype protein from the second allele. […] K562 was used as a control cell line containing two MLL wildtype alleles in order to exclude compounds that display general cytotoxic effects.
(§2) MV-4-11 and MOLM14 were cultured in RPMI-1640 (Sigma Aldrich) supplemented with 10% fetal bovine serum (HyClone), 2 mM L-glutamine (Sigma Aldrich) and 50 μg/ml gentamycin (Gibco). K562 were propagated in RPMI-1640 (Sigma Aldrich) supplemented with 20% fetal bovine serum (HyClone), 2 mM L-glutamine (Sigma Aldrich) and 50 μg/ml gentamycin (Gibco).
(§3) In order to assess the anti-proliferative effects, 1,500 MV-4-11, 300 MOLM14 cells or 750 K562 cells were seeded in 200 μl media per well in 96-well round bottom, ultra-low attachment plates (Costar, catalogue number 7007). Cell seeding numbers were chosen based on growth curves to ensure linear growth throughout the experiment. Test compounds were added at different concentrations and the DMSO content was normalized to 0.3%. Cells were incubated for 8 d at 37° C. and 5% CO2. Spheroid like growth was measured in real-time by live-cell imaging (IncuCyteZOOM, Essenbio, 4× objective) acquiring images at day 8. Confluence (%) as a measure of spheroid size was determined using an integrated analysis tool.
In order to determine the effect of the test compounds over time, the confluence in each well as a measure of spheroid size, was calculated. Confluence […] at the beginning of the experiment (t=0) was used as baseline for the calculation.
Absolute IC50 values were calculated as percent change in confluence as follows:
LC=Low Control: cells treated with 1 μM of the cytotoxic agent staurosporin
HC=High Control: Mean confluence (%) (DMSO treated cells) % Effect=100−(100*(Sample−LC)/(HC−LC))
To determine the IC50 a curve is fitted to the plot of % Effect vs Log 10 compound concentration using a sigmoidal fit with a variable slope and fixing the maximum to 100% and the minimum to 0%.

MOLM14 = assay: Proliferation assay B (spheroid assay) MOLM14; type: cell-based, human; settings: MOLM14 cells, confluence at day 8, absolute IC50, read-out: (3b) Spheroid assay MOLM14 (IC50(μM)) Assay B
Outline: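 IC50 derived from % effect on day-8 imaged confluence, scaled between DMSO-treated cells (high) and 1 μM staurosporine (low), using a variable-slope fit constrained 0-100%. Cells seeded as spheroids in ultra-low-attachment plates and exposed to compound for 8 days, 0.3% DMSO.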

menin = target: T1, menin (Homo sapiens, UniProt O00255, T541A); assay: Menin/MLL homogenous time-resolved fluorescence (HTRF) assay; type: binding; settings: location 2; read-out: (2) location 2 Menin HTRF assay (IC50 (nM))
T1 construct: Menin (a.a. 1-610-6×his tag)
T1 sequence (O00255 with tags, fused parts or gaps T541A): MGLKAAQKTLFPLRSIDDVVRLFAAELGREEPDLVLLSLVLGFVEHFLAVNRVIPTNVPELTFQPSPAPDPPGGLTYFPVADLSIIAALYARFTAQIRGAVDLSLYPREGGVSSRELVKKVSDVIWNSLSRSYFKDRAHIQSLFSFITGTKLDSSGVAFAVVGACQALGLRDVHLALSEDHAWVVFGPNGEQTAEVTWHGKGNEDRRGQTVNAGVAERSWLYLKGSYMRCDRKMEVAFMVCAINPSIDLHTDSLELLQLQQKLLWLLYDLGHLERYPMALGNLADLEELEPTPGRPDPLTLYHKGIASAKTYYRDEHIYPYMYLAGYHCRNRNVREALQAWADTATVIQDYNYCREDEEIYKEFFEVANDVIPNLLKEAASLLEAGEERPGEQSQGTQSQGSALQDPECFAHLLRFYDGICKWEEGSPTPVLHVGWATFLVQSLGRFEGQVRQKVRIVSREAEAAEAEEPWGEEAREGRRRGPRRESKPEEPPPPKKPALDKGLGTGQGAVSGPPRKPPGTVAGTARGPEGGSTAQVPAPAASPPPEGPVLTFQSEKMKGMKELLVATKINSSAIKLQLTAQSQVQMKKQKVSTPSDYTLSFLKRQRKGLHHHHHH
Outline: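 Displacement of 75 nM FITC-MBM1 from terbium-cryptate-labeled His-tagged menin 1-610 ([…]) was read as the 520/490 nm HTRF ratio. Compound (11-point, 3-fold series) got 5 min with menin before peptide, then 15 min at ambient; 0.5% DMSO, Tris pH 7.5.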

MV-4-11 [2] = assay: Proliferation assay A (spheroid assay) MV-4-11; type: cell-based, human; settings: MV-4-11 cells, 8 d, AUC of confluence against time, absolute IC50, read-out: (3a) Spheroid assay MV-4-11 (IC50(μM)) Assay A
Description: 3a) Proliferation Assay A
as §1, §2
as §3, with “MOLM14” for “MOLM14 cells”, “monitored” for “measured”, “one image every four hours for 8 d.” for “images at day 8.”
In order to determine the cumulative effect of the test compounds over time, the area under the curve (AUC) in a plot of confluence against time was calculated. Confluence at the beginning of the experiment (t=0) was used as baseline for the AUC calculation.
Absolute IC50 values were calculated according to the following procedure: % Control=(AUC sample/AUC control)*100
AUC control mean AUC of control values (cells without compound/DMSO as vehicle control)
A non-linear curve fit was applied using the least squares (ordinary) fit method to the plot of % control versus compound concentration. Based on this, the absolute IC50 value (half maximal inhibitory concentration of the test compound causing an anti-proliferative effect of 50% relative to the vehicle control) was calculated.

Compound	IC50 (MV-4-11 [1])	IC50 (MOLM14; Homo sapiens, MOLM-14, 192 h)	IC50 (menin)	IC50 (MV-4-11 [2]; Homo sapiens, MV4-11, 192 h)	IC50 (MOLM14)	IC50 (MV-4-11 [2])
Fc1ccc(NC2CC3(CCN(c4ncnc5sc(CC(F)(F)F)cc45)C3)C2)cc1 (mixture of isomers) [Compound 158]	2.41 µM	1.98 µM	72.2 nM			
CS(=O)(=O)N1CCC(CNC(=O)c2ccc(NC3CC4(CCN(c5ncnc6sc(CC(F)(F)F)cc56)C4)C3)cc2)CC1 (mixture of isomers) [Compound 177]	1.02 µM	1.22 µM	16.2 nM			
Cn1nnc2ccc(NC3CC4(CCN(c5ncnc6sc(CC(F)(F)F)cc56)C4)C3)cc21 (mixture of isomers) [Compound 216]	> 3.75 µM	> 3.75 µM	38 nM			
CN1CCN(Cc2cc(NC3CC4(CCN(c5ncnc6sc(CC(F)(F)F)cc56)C4)C3)ccc2C#N)CC1 (mixture of isomers) [Compound 225]	1.95 µM		22.7 nM			
CNC(=O)c1ccc(NC2CC3(CCN(c4ncnc5sc(CC(F)(F)F)cc45)C3)C2)cc1NCCN(C)C (mixture of isomers) [Compound 239]	> 3.75 µM		33.6 nM			
CN1CCN(c2cc(NC3CC4(CCN(c5ncnc6sc(CC(F)(F)F)cc56)C4)C3)ccc2C#N)CC1 (mixture of isomers) [Compound 240]	1.14 µM		8.6 nM			
CNC(=O)c1ccc(NC2CC3(CCN(c4ncnc5sc(CC(F)(F)F)cc45)C3)C2)cc1CCCN1CCN(S(C)(=O)=O)CC1 (mixture of isomers) [Compound 251]	> 3.75 µM	> 3.75 µM	171 nM			
O=c1[nH]c2cc(NC3CC4(CCN(c5ncnc6sc(CC(F)(F)F)cc56)C4)C3)ccc2o1 (mixture of isomers) [Compound 308]	2.64 µM	> 3.75 µM	5.6 nM			
O=c1[nH]c2ccc(NC3CC4(CCN(c5ncnc6sc(CC(F)(F)F)cc56)C4)C3)cc2[nH]1 (mixture of isomers) [Compound 319]	> 3.75 µM	> 3.75 µM	17.4 nM			
O=C(c1ccc(NC2CC3(CCN(c4ncnc5sc(CC(F)(F)F)cc45)C3)C2)cc1)N1CCOCC1 (mixture of isomers) [Compound 333]	0.12 µM	0.14 µM	10.3 nM			
COc1cc(NC2CC3(CCN(c4ncnc5sc(CC(F)(F)F)cc45)C3)C2)ccn1 (mixture of isomers) [Compound 341]		3.03 µM	50.3 nM	0.84 µM		
Nc1nc(N2CCC3(CC(Nc4ccc5[nH]c(=O)oc5c4)C3)C2)c2cc(CC(F)(F)F)sc2n1 (mixture of isomers) [Compound 384]	> 3.75 µM	1.49 µM	32.6 nM			
CS(=O)(=O)NCCCNC(=O)c1ccc(NC2CC3(CCN(c4ncnc5sc(CC(F)(F)F)cc45)C3)C2)nc1 (single isomer, unassigned) [Compound 275]	1.09 µM		2.4 nM			
CNS(=O)(=O)c1ccc(NC2CC3(CCN(c4ncnc5sc(CC(F)(F)F)cc45)C3)C2)cc1 (single isomer, unassigned) [Compound 318]		3.07 µM	8.1 nM	0.6 µM		
FC(F)(F)Cc1cc2c(N3CCC4(CC(Nc5ccc(-c6cn[nH]c6)cc5)C4)C3)ncnc2s1 (single isomer, unassigned) [Compound 327]		> 3.75 µM	8.4 nM	0.56 µM		
O=C1Cc2ccc(NC3CCC4(C3)CN(c3ncnc5sc(CC(F)(F)F)cc35)C4)cc2N1 (centres unmarked) [Compound 292]			81.3 nM	> 3.75 µM		
FC(F)(F)Cc1cc2c(N3CC4(CCC(Nc5ccc(-c6cc[nH]n6)cc5)C4)C3)ncnc2s1 (centres unmarked) [Compound 301]			32.3 nM	1.76 µM		
FC(F)(F)Cc1cc2c(N3CC4(CCC(Nc5ccc(-c6cn[nH]c6)cc5)C4)C3)ncnc2s1 (centres unmarked) [Compound 302]			509 nM	2.56 µM		

The next lines start with the values.

IC50 (MV-4-11 [1])	IC50 (MOLM14; Homo sapiens, MOLM-14, 192 h)	IC50 (menin)	IC50 (MV-4-11 [2]; Homo sapiens, MV4-11, 192 h)	IC50 (MOLM14)	IC50 (MV-4-11 [2])	Compound
2.84 µM	> 3.75 µM	90 nM				N#Cc1ccccc1NC1CC2(CCN(c3ncnc4sc(CC(F)(F)F)cc34)C2)C1 (mixture of isomers) [Compound 162]
> 3.75 µM	> 3.75 µM	77.6 nM				N#Cc1cccc(NC2CC3(CCN(c4ncnc5sc(CC(F)(F)F)cc45)C3)C2)c1 (mixture of isomers) [Compound 163]
1.09 µM	1.97 µM	12.2 nM				N#Cc1ccc(NC2CC3(CCN(c4ncnc5sc(CC(F)(F)F)cc45)C3)C2)cc1 (mixture of isomers) [Compound 164]
> 3.75 µM	> 3.75 µM	22.5 nM				CNc1nc(N2CCC3(CC(Nc4ccc(C#N)cn4)C3)C2)c2cc(CC(F)(F)F)sc2n1 (mixture of isomers) [Compound 271]
1.22 µM	3.41 µM	4.2 nM				FC(F)(F)Cc1cc2c(N3CCC4(CC(Nc5ccc6cnoc6c5)C4)C3)ncnc2s1 (mixture of isomers) [Compound 315]
> 3.75 µM	> 3.75 µM	26.4 nM				CNc1nc(N2CCC3(CC(Nc4ccc5[nH]c(=O)oc5c4)C3)C2)c2cc(CC(F)(F)F)sc2n1 (mixture of isomers) [Compound 399]
		34.6 nM		0.82 µM	1.27 µM	CNC(=O)c1ccc(NC2CC3(CCN(c4ncnc5sc(CC(F)(F)F)cc45)C3)C2)cc1 (single isomer, unassigned) [Compound 95]
	0.92 µM	2.4 nM	0.14 µM			CNC(=O)c1ccc(NC2CC3(CCN(c4nc(NC)nc5sc(CC(F)(F)F)cc45)C3)C2)cc1 (centres unmarked) [Compound 64]

Reference: patent US11396517B1, “Exo-aza spiro inhibitors of menin-MLL interaction” (Janssen Pharmaceutica NV, priority 2017, dated 2022)
